# Where a name gives a salt, the structure may show the parent alone.
# How the values were obtained:
# [1] = target: T1, PI3Kδ (p110δ/p85α) (Homo sapiens (Human), UniProt O00329); assay: AlphaScreen Assay for PI3Kδ (Assay A1); assay type: biochemical; details: column a, 20 μM ATP
# Excerpt: PI3-Kinase luminescent assay kit including lipid kinase substrate, D-myo-phosphatidylinositol 4,5-bisphosphate (PtdIns(4,5)P2)D (+)-sn-1,2-di-O-octanoylglyceryl, 3-O-phospho linked (PIP2), biotinylated I(1,3,4,5)P4, PI(3,4,5)P3 Detector Protein, was purchased from Echelon Biosciences (Salt Lake City, Utah). AlphaScreen™ GST Detection Kit including donor and acceptor beads was purchased from PerkinElmer Life Sciences (Waltham, Mass.). PI3Kδ (p110δ/p85α) was purchased from Millipore (Bedford, Mass.). ATP, MgCb, DTT, EDTA, HEPES and CHAPS were purchased from Sigma-Aldrich (St. Louis, Mo.).
# AlphaScreen™ Assay for PI3Kδ
# The kinase reaction was conducted in 384-well REMP plate from Thermo Fisher Scientific in a final volume of 40 μL. Inhibitors were first diluted serially in DMSO and added to the plate wells before the addition of other reaction components. The final concentration of DMSO in the assay was 2%. The PI3K assays were carried out at room temperature in 50 mM HEPES, pH 7.4, 5 mM MgCl2, 50 mM NaCl, 5 mM DTT and CHAPS 0.04%. Reactions were initiated by the addition of ATP, the final reaction mixture consisted of 20 μM PIP2, 20 μM ATP, 1.2 nM PI3Kδ were incubated for 20 min. 10 μL of reaction mixture was then transferred to 5 μL 50 nM biotinylated I(1,3,4,5)P4 in quench buffer: 50 mM HEPES pH 7.4, 150 mM NaCl, 10 mM EDTA, 5 mM DTT, 0.1% Tween-20, followed with the addition of 10 μL AlphaScreen™ donor and acceptor beads suspended in quench buffer containing 25 nM PI(3,4,5)P3 detector protein. The final concentration of both donor and acceptor beads is […]. After plate sealing, the plate was incubated in a dark location at room temperature for 2 hours. The activity of the product was determined on Fusion-alpha microplate reader (Perkin-Elmer). IC50 determination was performed by fitting the curve of percent control activity versus the log of the inhibitor concentration using the GraphPad Prism 3.0 software.
# [2] = target: T1, PI3Kδ (p110δ/p85α); assay: PI3Kδ Scintillation Proximity Assay (Assay A3); assay type: biochemical; details: column b, Assay A3 (SPA), 20 μM ATP
# Excerpt: [γ-^33P]ATP (10 mCi/mL) was purchased from Perkin-Elmer (Waltham, Mass.). Lipid kinase substrate, D-myo-Phosphatidylinositol 4,5-bisphosphate (PtdIns(4,5)P2)D (+)-sn-1,2-di-O-octanoylglyceryl, 3-O-phospho linked (PIP2), CAS 204858-53-7, was purchased from Echelon Biosciences (Salt Lake City, Utah). PI3Kδ (p110δ/p85α) was purchased from Millipore (Bedford, Mass.). ATP, MgCl2, DTT, EDTA, MOPS and CHAPS were purchased from Sigma-Aldrich (St. Louis, Mo.). Wheat Germ Agglutinin (WGA) YSi SPA Scintillation Beads was purchased from GE healthcare life sciences (Piscataway, N.J.).
# The kinase reaction was conducted in polystyrene 384-well matrix white plate from Thermo Fisher Scientific in a final volume of 25 μL. Inhibitors were first diluted serially in DMSO and added to the plate wells before the addition of other reaction components. The final concentration of DMSO in the assay was 0.5%. The PI3K assays were carried out at room temperature in 20 mM MOPS, pH 6.7, 10 mM MgCl2, 5 mM DTT and CHAPS 0.03%. Reactions were initiated by the addition of ATP, the final reaction mixture consisted of 20 μM PIP2, 20 μM ATP, 0.2 μCi [γ-^33P] ATP, 4 nM PI3Kδ. Reactions were incubated for 210 min and terminated by the addition of 40 μL SPA beads suspended in quench buffer: 150 mM potassium phosphate pH 8.0, 20% glycerol. 25 mM EDTA, 400 μM ATP. The final concentration of SPA beads was 1.0 mg/mL. After the plate sealing, plates were shaken overnight at room temperature and centrifuged at 1800 rpm for 10 minutes, the radioactivity of the product was determined by scintillation counting on Topcount (Perkin-Elmer). IC50 determination was performed by fitting the curve of percent control activity versus the log of the inhibitor concentration using the GraphPad Prism 3.0 software.
# T1 sequence (O00329 whole entry, species assumed): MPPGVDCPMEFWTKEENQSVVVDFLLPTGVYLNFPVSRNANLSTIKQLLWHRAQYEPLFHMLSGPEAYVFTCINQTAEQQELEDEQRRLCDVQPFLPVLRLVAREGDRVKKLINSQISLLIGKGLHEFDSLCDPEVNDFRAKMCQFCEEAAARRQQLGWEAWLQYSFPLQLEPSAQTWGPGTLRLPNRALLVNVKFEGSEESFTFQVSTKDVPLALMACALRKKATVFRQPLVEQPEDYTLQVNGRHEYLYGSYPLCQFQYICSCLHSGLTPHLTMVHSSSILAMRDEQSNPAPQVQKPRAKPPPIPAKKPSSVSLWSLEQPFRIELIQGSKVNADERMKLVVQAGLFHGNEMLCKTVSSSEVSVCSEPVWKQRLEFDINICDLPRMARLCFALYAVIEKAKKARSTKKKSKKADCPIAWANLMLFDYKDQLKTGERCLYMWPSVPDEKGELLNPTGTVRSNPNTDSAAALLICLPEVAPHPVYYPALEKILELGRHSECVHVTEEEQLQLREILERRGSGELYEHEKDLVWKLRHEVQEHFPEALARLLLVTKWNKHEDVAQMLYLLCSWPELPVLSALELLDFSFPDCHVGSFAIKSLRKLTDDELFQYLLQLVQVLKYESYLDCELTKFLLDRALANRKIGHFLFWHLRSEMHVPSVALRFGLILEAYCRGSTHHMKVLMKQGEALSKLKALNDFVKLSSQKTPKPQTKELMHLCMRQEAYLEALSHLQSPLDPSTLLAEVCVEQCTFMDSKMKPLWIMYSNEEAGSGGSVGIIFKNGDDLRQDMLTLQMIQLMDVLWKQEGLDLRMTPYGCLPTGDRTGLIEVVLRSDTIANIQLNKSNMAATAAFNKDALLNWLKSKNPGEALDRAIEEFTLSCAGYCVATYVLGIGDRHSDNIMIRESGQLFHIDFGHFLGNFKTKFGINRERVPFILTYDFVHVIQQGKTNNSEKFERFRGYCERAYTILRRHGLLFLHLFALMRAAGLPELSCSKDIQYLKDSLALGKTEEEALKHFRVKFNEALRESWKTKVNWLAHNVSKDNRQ
# T1 sequence (P27986 whole entry partner, species assumed): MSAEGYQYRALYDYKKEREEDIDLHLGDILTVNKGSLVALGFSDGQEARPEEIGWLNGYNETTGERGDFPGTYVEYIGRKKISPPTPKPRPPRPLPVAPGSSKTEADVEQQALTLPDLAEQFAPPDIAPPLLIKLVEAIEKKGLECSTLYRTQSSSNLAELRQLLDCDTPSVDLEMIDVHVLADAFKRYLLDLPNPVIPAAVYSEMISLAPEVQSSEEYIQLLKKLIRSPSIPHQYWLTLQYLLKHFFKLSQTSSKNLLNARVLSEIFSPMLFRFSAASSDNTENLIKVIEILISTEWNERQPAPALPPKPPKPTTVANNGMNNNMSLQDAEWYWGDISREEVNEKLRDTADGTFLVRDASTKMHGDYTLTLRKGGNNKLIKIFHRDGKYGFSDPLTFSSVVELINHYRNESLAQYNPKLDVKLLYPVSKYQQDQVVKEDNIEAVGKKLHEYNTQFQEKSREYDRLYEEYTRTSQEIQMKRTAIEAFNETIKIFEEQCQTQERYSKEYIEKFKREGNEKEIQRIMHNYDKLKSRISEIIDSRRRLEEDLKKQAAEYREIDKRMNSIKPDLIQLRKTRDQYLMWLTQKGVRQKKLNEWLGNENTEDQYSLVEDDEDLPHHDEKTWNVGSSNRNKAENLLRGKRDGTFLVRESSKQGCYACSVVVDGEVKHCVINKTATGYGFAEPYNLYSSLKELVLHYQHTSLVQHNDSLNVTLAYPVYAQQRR
IC50 [1] [nM],IC50 [2] [nM],SMILES
100 to 500,50 to 100,"CCC(Nc1ncnc2[nH]cnc12)c1nc2cccc(C)n2c(=O)c1-c1cc(F)cc(F)c1 (stereo not shown) [Example 5, 3-(3,5-difluorophenyl)-6-methyl-2-[1-(9H-purin-6-ylamino)propyl]-4H-pyrido[1,2-a]pyrimidin-4-one]"
50 to 100,< 50,"Cc1csc2nc(C(C)Nc3ncnc4[nH]cnc34)c(-c3ccccc3)c(=O)n12 (stereo not shown) [Example 8, 3-methyl-6-phenyl-7-[1-(9H-purin-6-ylamino)ethyl]-5H-[1,3]thiazolo[3,2-a]pyrimidin-5-one]"
100 to 500,50 to 100,"CCC(Nc1ncnc2[nH]cnc12)c1nc2cccc(C)n2c(=O)c1-c1cccc(F)c1 (stereo not shown) [Example 4, 3-(3-fluorophenyl)-6-methyl-2-[1-(9H-purin-6-ylamino)propyl]-4H-pyrido[1,2-a]pyrimidin-4-one]"
50 to 100,50 to 100,"Cc1csc2nc(C(C)Nc3ncnc4[nH]cnc34)c(-c3ccccn3)c(=O)n12 (stereo not shown) [Example 14, 3-methyl-7-[1-(9H-purin-6-ylamino)ethyl]-6-pyridin-2-yl-5H-[1,3]thiazolo[3,2-a]pyrimidin-5-one]"
100 to 500,100 to 500,"CCC(Nc1ncnc2[nH]cnc12)c1nc2cccc(C)n2c(=O)c1-c1cncc(F)c1 (stereo not shown) [Example 3, 3-(5-fluoropyridin-3-yl)-6-methyl-2-[1-(9H-purin-6-ylamino)propyl]-4H-pyrido[1,2-a]pyrimidin-4-one]"
100 to 500,100 to 500,"CCC(Nc1ncnc2[nH]cnc12)c1nc2cccc(C)n2c(=O)c1-c1cccnc1F (stereo not shown) [Example 6, 3-(2-fluoropyridin-3-yl)-6-methyl-2-[1-(9H-purin-6-ylamino)propyl]-4H-pyrido[1,2-a]pyrimidin-4-one]"
50 to 100,< 50,"CCC(Nc1ncnc2[nH]cnc12)c1nc2cccc(C)n2c(=O)c1-c1ccccc1 (stereo not shown) [Example 2, 6-methyl-3-phenyl-2-[1-(9H-purin-6-ylamino)propyl]-4H-pyrido[1,2-a]pyrimidin-4-one]"
100 to 500,50 to 100,"CCC(Nc1ncnc2[nH]cnc12)c1nc2cccc(C)n2c(=O)c1-c1cn[nH]c1 (stereo not shown) [Example 7, 6-methyl-2-[1-(9H-purin-6-ylamino)propyl]-3-(1H-pyrazol-4-yl)-4H-pyrido[1,2-a]pyrimidin-4-one]"
100 to 500,100 to 500,"Cc1cccc2nc(C(C)n3cnc4c(N)ncnc43)c(-c3ccccc3)c(=O)n12 (stereo not shown) [Example 1, 2-[1-(6-amino-9H-purin-9-yl)ethyl]-6-methyl-3-phenyl-4H-pyrido[1,2-a]pyrimidin-4-one]"
,100 to 500,"Cc1csc2nc(C(C)Nc3ncnc4[nH]cnc34)c(-c3cncc(F)c3)c(=O)n12 (stereo not shown) [Example 42, 6-(5-fluoropyridin-3-yl)-3-methyl-7-[1-(9H-purin-6-ylamino)ethyl]-5H-[1,3]thiazolo[3,2-a]pyrimidin-5-one trifluoroacetic acid salt]"
,> 500,"Cc1cccc2nc(C(C)Nc3ncnc4[nH]cnc34)c(-c3ccc(Cl)cc3)c(=O)n12 (stereo not shown) [Example 55, 3-(4-Chlorophenyl)-6-methyl-2-[1-(9H-purin-6-ylamino)ethyl]-4H-pyrido[1,2-a]pyrimidin-4-one trifluoroacetic acid salt]"
,50 to 100,"Cc1csc2nc(C(C)Nc3nc(N)nc4[nH]cnc34)c(-c3cncc(F)c3)c(=O)n12 (stereo not shown) [Example 38, 7-{1-[(2-amino-9H-purin-6-yl)amino]ethyl}-6-(5-fluoropyridin-3-yl)-3-methyl-5H-[1,3]thiazolo[3,2-a]pyrimidin-5-one trifluoroacetic acid salt]"
,50 to 100,"Cc1csc2nc(C(C)Nc3nc(N)nc4[nH]cnc34)c(-c3cc(F)cc(Cl)c3)c(=O)n12 (stereo not shown) [Example 35, 7-{1-[(2-amino-9H-purin-6-yl)amino]ethyl}-6-(3-chloro-5-fluorophenyl)-3-methyl-5H-[1,3]thiazolo[3,2-a]pyrimidin-5-one trifluoroacetic acid salt]"
